The assay addresses Nav 1.7 (human SCN9A) (Homo sapiens, UniProt Q15858). Kind of assay: Measurement of Na ion current by automated patch clamp assay in cells stably-expressing human SCN9A. Conditions: compound concentration 10 μmol/L; peak current at 30th depolarizing pulse (10 Hz); holding potential inactivating 50% Nav 1.7 channel (around −60 mV); room temperature; read-out: Inhibitory rate (%) of Na ion current. Type of assay: cell-based. The procedure:
Measurement of Na Ion Current in Voltage-Dependent Na Channel Gene Expressed Cell
Nav 1.7 current was measured by automated patch clamp assay using cells stably-expressing human SCN9A.
Cells Stably-Expressing Human SCN9A
Tetracycline-induced cells stably-expressing SCN9A were obtained from ChanTest Corporation. The cells were passaged in Ham's F-12 medium containing […], 100 units/mL Penicillin-Streptomycin, 0.01 mg/mL Blasticidin, and 400 μg/mL Zeocin. The cell seeded on a glass slide was cultured in Ham's F-12 medium containing 1 μg/mL tetracycline, 1 μg/mL sodium butyrate, 10% fetal bovine serum, and 100 units/mL Penicillin-Streptomycin. Next day, the Na ion current was measured by automated patch clamp assay.
Electrophysiologic Measurement of Na Ion Current
The Na ion current was measured by automated patch clamp assay using the following extracellular solution and intracellular solution.
Extracellular solution (mmol/L): NaCl 130, MgCl2 2, CaCl2) 2, CdCl2 0.1, NiCl2 0.1, Tetraethylammonium-Cl 18, 4-aminopyridine 1, HEPES (4-(2-hydroxyethyl)-1-piperazineethanesulfonic acid) 10, (adjusting pH 7.4 with NaOH)
Intracellular solution (mmol/L): CsF 120, EGTA (ethylene glycol tetraacetic acid) 10, NaCl 15, HEPES 10, (adjusting pH 7.2 with CsOH)
The control of the stimulating pulse and the data acquisition were carried out using EPC10 amplifier and Patch Master Software (HEKA). Data were sampled at 20 kHz, and low-pass filtered at 2.9 kHz. All the measurements were carried out at room temperature. The holding potential was set at a potential inactivating 50% Nav 1.7 channel (around −60 mV), and depolarizing pulse of 20 milliseconds (around 0 mV) was given at a frequency of 10 Hz 30 times. […] The inhibitory rate of the Na ion current by the test compounds was calculated according to the following calculating formula with the peak current value generated by the 30th depolarizing pulse.
Inhibitory rate of Na ion current (%)=100×[(Peak current value in the absence of Test Compound)−(Peak current value in the presence of Test Compound)]/(Peak current value in the absence of Test Compound)
A general note: Patch clamp records ionic current or voltage across a cell membrane.
Nav 1.7 (human SCN9A), sequence (Q15858 whole entry): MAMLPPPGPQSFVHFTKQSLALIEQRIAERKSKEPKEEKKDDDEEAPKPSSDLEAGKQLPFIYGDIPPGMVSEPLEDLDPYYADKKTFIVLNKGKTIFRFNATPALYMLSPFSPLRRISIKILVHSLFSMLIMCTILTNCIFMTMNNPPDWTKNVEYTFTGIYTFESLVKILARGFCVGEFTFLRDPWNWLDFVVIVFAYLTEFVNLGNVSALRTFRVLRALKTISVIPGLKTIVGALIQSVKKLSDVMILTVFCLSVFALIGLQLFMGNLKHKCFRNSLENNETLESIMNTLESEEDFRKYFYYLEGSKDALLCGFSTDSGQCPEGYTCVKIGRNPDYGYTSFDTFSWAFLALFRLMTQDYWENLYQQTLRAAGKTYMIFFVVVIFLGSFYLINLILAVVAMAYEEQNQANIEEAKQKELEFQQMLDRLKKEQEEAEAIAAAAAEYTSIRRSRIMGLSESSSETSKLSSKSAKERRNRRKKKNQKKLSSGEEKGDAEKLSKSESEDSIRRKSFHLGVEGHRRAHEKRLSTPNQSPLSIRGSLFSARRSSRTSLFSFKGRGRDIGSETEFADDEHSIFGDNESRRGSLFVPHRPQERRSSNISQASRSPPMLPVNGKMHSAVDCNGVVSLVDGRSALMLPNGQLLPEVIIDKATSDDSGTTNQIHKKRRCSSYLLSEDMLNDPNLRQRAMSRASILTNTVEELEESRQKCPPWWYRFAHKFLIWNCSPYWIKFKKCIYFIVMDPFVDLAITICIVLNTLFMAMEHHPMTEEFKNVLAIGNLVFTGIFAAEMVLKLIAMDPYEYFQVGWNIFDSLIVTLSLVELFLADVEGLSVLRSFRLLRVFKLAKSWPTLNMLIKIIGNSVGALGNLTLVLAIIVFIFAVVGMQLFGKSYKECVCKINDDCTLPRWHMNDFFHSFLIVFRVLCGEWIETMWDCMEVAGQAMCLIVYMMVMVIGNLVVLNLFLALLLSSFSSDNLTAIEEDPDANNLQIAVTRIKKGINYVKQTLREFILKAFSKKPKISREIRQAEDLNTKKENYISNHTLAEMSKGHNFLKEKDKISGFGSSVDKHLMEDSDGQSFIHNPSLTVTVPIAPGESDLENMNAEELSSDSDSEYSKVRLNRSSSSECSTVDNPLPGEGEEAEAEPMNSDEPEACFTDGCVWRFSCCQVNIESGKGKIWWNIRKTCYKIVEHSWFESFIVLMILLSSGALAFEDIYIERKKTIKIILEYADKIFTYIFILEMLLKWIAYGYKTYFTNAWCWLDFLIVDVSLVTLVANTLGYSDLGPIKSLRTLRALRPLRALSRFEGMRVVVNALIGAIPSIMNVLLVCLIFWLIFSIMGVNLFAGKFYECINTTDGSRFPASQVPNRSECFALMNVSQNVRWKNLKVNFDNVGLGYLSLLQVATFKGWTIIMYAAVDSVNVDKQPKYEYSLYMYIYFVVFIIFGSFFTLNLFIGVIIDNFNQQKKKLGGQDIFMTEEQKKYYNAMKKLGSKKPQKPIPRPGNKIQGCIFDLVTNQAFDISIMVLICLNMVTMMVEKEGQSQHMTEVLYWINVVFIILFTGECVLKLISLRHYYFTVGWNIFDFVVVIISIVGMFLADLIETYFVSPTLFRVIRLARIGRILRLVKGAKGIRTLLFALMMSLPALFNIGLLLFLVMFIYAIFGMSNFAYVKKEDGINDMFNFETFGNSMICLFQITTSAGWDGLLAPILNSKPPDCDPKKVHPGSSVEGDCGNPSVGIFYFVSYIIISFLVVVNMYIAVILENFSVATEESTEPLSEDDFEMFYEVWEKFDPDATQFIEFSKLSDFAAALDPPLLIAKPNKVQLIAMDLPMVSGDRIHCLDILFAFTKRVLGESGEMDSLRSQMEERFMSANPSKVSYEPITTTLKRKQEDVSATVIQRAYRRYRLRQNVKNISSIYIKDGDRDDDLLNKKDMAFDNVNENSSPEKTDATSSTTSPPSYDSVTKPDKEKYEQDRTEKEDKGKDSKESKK
For `Cn1c(=O)n(CC2(O)COC2)c2cc(Oc3ccc(OC(F)(F)F)cc3)ccc21` [Example 17, 3-[(3-hydroxyoxetan-3-yl)methyl]-1-methyl-5-[4-(trifluoromethoxy)phenoxy]-1,3-dihydro-2H-benzimidazol-2-one], the inhibition at 10 µM stood at 87%.

`O=c1[nH]c2ccc(Oc3ccc(C(F)(F)F)cn3)cc2n1CC1(O)COC1` [Example 2, 1-[(3-hydroxyoxetan-3-yl)methyl]-6-{[5-(trifluoromethyl)pyridin-2-yl]oxy}-1,3-dihydro-2H-benzimidazol-2-one]: the inhibition at 10 µM is 26%.

For the compound `CC(C)(O)Cn1c(=O)[nH]c2cc(Oc3ccc(OC(F)(F)F)cc3)ccc21` [Example 25, 1-(2-hydroxy-2-methylpropyl)-5-[4-(trifluoromethoxy)phenoxy]-1,3-dihydro-2H-benzimidazol-2-one], the inhibition at 10 µM worked out at 42%.

`Cn1c(=O)n(CC2(O)COC2)c2cc(Oc3ccc(C(F)(F)F)nc3)ccc21` [Example 15, 3-[(3-hydroxyoxetan-3-yl)methyl]-1-methyl-5-{[6-(trifluoromethyl)pyridin-3-yl]oxy}-1,3-dihydro-2H-benzimidazol-2-one]: the inhibition at 10 µM came to 46%.

Regarding `CC(C)(O)Cn1c(=O)[nH]c2ccc(-c3ccc(C(F)(F)F)cn3)cc21` [Example 20, 1-(2-hydroxy-2-methylpropyl)-6-[5-(trifluoromethyl)pyridin-2-yl]-1,3-dihydro-2H-benzimidazol-2-one], the inhibition at 10 µM came out at 29%.

`Cn1c(=O)n(CC2(O)COC2)c2ccc(Oc3ccc(OC(F)(F)F)cc3)cc21` [Example 28, 1-[(3-hydroxyoxetan-3-yl)methyl]-3-methyl-5-[4-(trifluoromethoxy)phenoxy]-1,3-dihydro-2H-benzimidazol-2-one]: the inhibition at 10 µM is 39%.

`O=c1[nH]c2cc(Oc3ccc(OC(F)(F)F)cc3)ccc2n1CC1(O)COC1` [Example 27, 1-[(3-hydroxyoxetan-3-yl)methyl]-5-[4-(trifluoromethoxy)phenoxy]-1,3-dihydro-2H-benzimidazol-2-one]: the inhibition at 10 µM was 38%.

As to `CC(C)(O)Cn1c(=O)[nH]c2cc(Oc3ccc(C(F)(F)F)cn3)ccc21` [Example 26, 1-(2-hydroxy-2-methylpropyl)-5-{[5-(trifluoromethyl)pyridin-2-yl]oxy}-1,3-dihydro-2H-benzimidazol-2-one], the inhibition at 10 µM amounted to 32%.

With `O=c1[nH]c2ccc(Oc3ccc(F)cc3)cc2n1CC1(O)COC1` [Example 7, 6-(4-fluorophenoxy)-1-[(3-hydroxyoxetan-3-yl)methyl]-1,3-dihydro-2H-benzimidazol-2-one], the inhibition at 10 µM stood at 40%.

Turning to `CC(C)(O)Cn1c(=O)[nH]c2ccc(Oc3ccc(F)cc3)cc21` [Example 6, 6-(4-fluorophenoxy)-1-(2-hydroxy-2-methylpropyl)-1,3-dihydro-2H-benzimidazol-2-one], the inhibition at 10 µM came to 40%.

With `Cn1c(=O)n(CC2(O)COC2)c2cc(Oc3ccc(Cl)cc3)ccc21` [Example 18, 5-(4-chlorophenoxy)-3-[(3-hydroxyoxetan-3-yl)methyl]-1-methyl-1,3-dihydro-2H-benzimidazol-2-one], the inhibition at 10 µM stood at 86%.

Turning to `Cn1c(=O)n(CC2(O)COC2)c2cc(Oc3ccc(F)cc3)ccc21` [Example 16, 5-(4-fluorophenoxy)-3-[(3-hydroxyoxetan-3-yl)methyl]-1-methyl-1,3-dihydro-2H-benzimidazol-2-one], the inhibition at 10 µM turned out to be 61%.

As for `CC(C)(O)Cn1c(=O)[nH]c2cc(-c3ccc(F)cc3)ccc21` [Example 24, 5-(4-fluorophenyl)-1-(2-hydroxy-2-methylpropyl)-1,3-dihydro-2H-benzimidazol-2-one], the inhibition at 10 µM is 45%.

As to `C[C@H](n1c(=O)[nH]c2ccc(Oc3ccc(F)cc3)cc21)C(C)(C)O` [Example 10, 6-(4-fluorophenoxy)-1-[(2S)-3-hydroxy-3-methylbutan-2-yl]-1,3-dihydro-2H-benzimidazol-2-one], the inhibition at 10 µM turned out to be 50%.

Take `O=c1[nH]c2ccc(Oc3ccc(OC(F)(F)F)cc3)cc2n1CC1(O)COC1` [Example 5, 1-[(3-hydroxyoxetan-3-yl)methyl]-6-[4-(trifluoromethoxy)phenoxy]-1,3-dihydro-2H-benzimidazol-2-one]: the inhibition at 10 µM worked out at 86%.

As for `CC(C)(O)Cn1c(=O)[nH]c2ccc(-c3ccc(C(F)(F)F)cc3)cc21` [Example 21, 1-(2-hydroxy-2-methylpropyl)-6-[4-(trifluoromethyl)phenyl]-1,3-dihydro-2H-benzimidazol-2-one], the inhibition at 10 µM was found to be 96%.

In the case of `C[C@H](n1c(=O)[nH]c2ccc(Oc3ccc(C(F)(F)F)cn3)cc21)C(C)(C)O` [Example 9, 1-[(2S)-3-hydroxy-3-methylbutan-2-yl]-6-{[5-(trifluoromethyl)pyridin-2-yl]oxy}-1,3-dihydro-2H-benzimidazol-2-one], the inhibition at 10 µM was found to be 27%.

Turning to `CC(C)(O)Cn1c(=O)[nH]c2ccc(Oc3ccc(C(F)(F)F)cn3)cc21` [Example 1, 1-(2-hydroxy-2-methylpropyl)-6-{[5-(trifluoromethyl)pyridin-2-yl]oxy}-1,3-dihydro-2H-benzimidazol-2-one], the inhibition at 10 µM was found to be 33%.

As for `Cn1c(=O)n(CC2(O)COC2)c2cc(Oc3ccc(C(F)(F)F)cn3)ccc21` [Example 14, 3-[(3-hydroxyoxetan-3-yl)methyl]-1-methyl-5-{[5-(trifluoromethyl)pyridin-2-yl]oxy}-1,3-dihydro-2H-benzimidazol-2-one], the inhibition at 10 µM worked out at 39%.

Regarding `Cn1c(=O)n(CC(C)(C)O)c2cc(Oc3ccc(C(F)(F)F)cn3)ccc21` [Example 13, 3-(2-hydroxy-2-methylpropyl)-1-methyl-5-{[5-(trifluoromethyl)pyridin-2-yl]oxy}-1,3-dihydro-2H-benzimidazol-2-one], the inhibition at 10 µM worked out at 38%.

Take `O=c1[nH]c2ccc(Oc3ccc(C(F)(F)F)nc3)cc2n1CC1(O)COC1` [Example 3, 1-[(3-hydroxyoxetan-3-yl)methyl]-6-{[6-(trifluoromethyl)pyridin-3-yl]oxy}-1,3-dihydro-2H-benzimidazol-2-one]: the inhibition at 10 µM worked out at 22%.

As to `O=c1[nH]c2ccc(Oc3ccc(Cl)cc3)cc2n1CC1(O)COC1` [Example 8, 6-(4-chlorophenoxy)-1-[(3-hydroxyoxetan-3-yl)methyl]-1,3-dihydro-2H-benzimidazol-2-one], the inhibition at 10 µM amounted to 80%.

With `CC(C)(O)Cn1c(=O)[nH]c2cc(-c3ccc(C(F)(F)F)nc3)ccc21` [Example 23, 1-(2-hydroxy-2-methylpropyl)-5-[6-(trifluoromethyl)pyridin-3-yl]-1,3-dihydro-2H-benzimidazol-2-one], the inhibition at 10 µM was 36%.

As to `CC(C)(O)Cn1c(=O)[nH]c2ccc(-c3ccc(C(F)(F)F)nc3)cc21` [Example 19, 1-(2-hydroxy-2-methylpropyl)-6-[6-(trifluoromethyl)pyridin-3-yl]-1,3-dihydro-2H-benzimidazol-2-one], the inhibition at 10 µM stood at 8%.

Turning to `O=c1[nH]c2ccc(Oc3ccc(C(F)(F)F)cn3)cc2n1[C@H]1CC[C@@H](O)CC1` [Example 4, 1-(cis-4-hydroxycyclohexyl)-6-{[5-(trifluoromethyl)pyridin-2-yl]oxy}-1,3-dihydro-2H-benzimidazol-2-one], the inhibition at 10 µM stood at 39%.

As for `CC(C)(O)Cn1c(=O)[nH]c2ccc(-c3ccc(F)cc3)cc21` [Example 22, 6-(4-fluorophenyl)-1-(2-hydroxy-2-methylpropyl)-1,3-dihydro-2H-benzimidazol-2-one], the inhibition at 10 µM amounted to 43%.

Consider `O=c1[nH]c2ccc(Oc3ccc(F)cc3)cc2n1[C@H]1CC[C@@H](O)CC1` [Example 11, 6-(4-fluorophenoxy)-1-(cis-4-hydroxycyclohexyl)-1,3-dihydro-2H-benzimidazol-2-one], for which the inhibition at 10 µM came to 65%.

In the case of `CCn1c(=O)n(CC(C)(C)O)c2cc(Oc3ccc(C(F)(F)F)cn3)ccc21` [Example 12, 1-ethyl-3-(2-hydroxy-2-methylpropyl)-5-{[5-(trifluoromethyl)pyridin-2-yl]oxy}-1,3-dihydro-2H-benzimidazol-2-one], the inhibition at 10 µM turned out to be 14%.

The record behind these values is US20210393604A1, “NOVEL BENZIMIDAZOLONE COMPOUND AND PHARMACEUTICAL USE THEREOF” (Sumitomo Dainippon Pharma Co., Ltd., priority 2017, published 2021).
